These results are taken from patent US20220232831A1, “NOVEL NON-CODING HETEROCYCLIC AMINO ACIDS (NCHAA) AND THEIR USE AS HERBICIDES” (Fortephest Ltd., priority 2019, published 2022).

For assay [1], the system named is Seeds of Lettuce R. (Super-Jericho). As to the kind of experiment: Filter paper bioassay with lettuce seeds (germination and early plant development). The class given is in vivo. The following applies: lettuce seeds on filter paper; 1, 0.1, 0.01, 0.001 mM; radicle and shoots assessed after 6 days. The procedure: Seeds of Lettuce R. (Super-Jericho, non-sterilized) were obtained from Ben Shahar Moshe Ltd., 99% purity.
Filter Paper Bioassays with Lettuce Seeds:
The protocol is following Bertin et al. 2009 and Movellan et al. 2014 with specified modifications as described below.
Seeds were placed on Whatman no. 1 filter paper (Whatman, Middlesex, U.K.) in Petri dishes (10 seeds per plate) supplemented with 2.0 ml of water (Control) or with a solution comprising 1 mM, 0.1 mM, 0.01 mM and 0.001 mM of test material. Petri dishes with seeds were placed in a tray at an angle of 45°. The trays were kept in dark for 48 hours and then transferred to the growth chamber (22° C., 0.045 mmol×m−2×s−1 photosynthetic photon flux density; 6/18 dark/light cycle) for additional 4 days. Each experiment was performed at least in two repeats. The development of radicle and shoots of experimental and control plants were visually assessed 6 days after the beginning of the test to determine Minimal Effective Concentration (MEC) of test material. In the context of the invention, MEC is defined as the lowest concentration level of a test material that caused deviation (absence of germination or malformation of radicle and shoots) from the plant's development in the Control group.

The subject of assay [2] is Romaine lettuce (Lactuca sativa L.) plants. As to the kind of experiment: Post-emergency herbicidal activity on Romaine lettuce plants. Particulars: Romaine lettuce at stage 2 to 3 leaves; compound in 0.1% Silwet, up to 0.5%; visual evaluation vs control plants. The class given is in vivo. The procedure: The tests were performed on Romaine lettuce (Lactuca sativa L.) plants at the stage 2 to 3 leaves. The plants were grown on 300 well trays packed with soil, well dimensions 2×2×5 cm. Each compound was dissolved in 0.1% water solution of agronomically acceptable surfactant Silwet to final concentrations ranging from 0.0% (Control) to 0.5%. Two weeks after the treatment the herbicidal effects of the respective test material were visually evaluated by a comparison with the control plants. In addition, the aboveground part of the plant was neatly cut and weighed (wet weight). Each test was performed on 20 to 40 plants. The degree of growth inhibition and damage was evaluated according to the parameters in Table 2. Plant development at 7, 14, and 21 DAA (days after application) were evaluated on a scale of 0 to 100, in which score 0 represents dead plants and score 100 represents healthy plants according to plant vigor, height, and leaf color. Each test included 20 to 40 plants.

In the case of `NC(Cc1cocn1)C(=O)O` (stereo not drawn) [Code 542], in assay [1], the “Minimal Effective Concentration (MEC) as activity score, seeds germination & early plants development” value (shortened to “Minimal Effective Concentration (MEC)”) was “Weak (More than 1 mM)”. In addition, in assay [2], the “post-emergency herbicidal activity (Activity Index: plant's development vs Control)” value was “Weak (More than 75)”.

For `NC(CNS(=O)(=O)c1ccnc(Br)c1)C(=O)O` (stereo not drawn) [Code 657], the “Minimal Effective Concentration (MEC)” value in assay [1] is “Weak (More than 1 mM)”. Besides, the “post-emergency herbicidal activity (Activity Index: plant's development vs Control)” value in assay [2] was “Weak (More than 75)”.

As to `NC(CNS(=O)(=O)c1cc(Cl)sc1Cl)C(=O)O` (stereo not drawn) [Code 514], in assay [1], the “Minimal Effective Concentration (MEC)” value is reported as “Weak (More than 1 mM)”. For the same compound, the “post-emergency herbicidal activity (Activity Index: plant's development vs Control)” value in assay [2] is “Weak (More than 75)”.

As for `NC(Cc1ncsc1Cl)C(=O)O` (stereo not drawn) [Code 528], the “Minimal Effective Concentration (MEC)” value in assay [1] is “Moderate (1 mM)”. Moreover, the “post-emergency herbicidal activity (Activity Index: plant's development vs Control)” value in assay [2] was “Weak (More than 75)”.

With `NC(Cc1c(Cl)cncc1Cl)C(=O)O` (stereo not drawn) [Code 629], the “Minimal Effective Concentration (MEC)” value in assay [1] is recorded as “Weak (More than 1 mM)”. The “post-emergency herbicidal activity (Activity Index: plant's development vs Control)” value in assay [2] was “Moderate (From 50 to 75)”.

With `CN(C)c1ccncc1CC(N)C(=O)O` (stereo not drawn) [Code 643], in assay [1], the “Minimal Effective Concentration (MEC)” value was “Weak (More than 1 mM)”. Further, in assay [2], the “post-emergency herbicidal activity (Activity Index: plant's development vs Control)” value is listed as “Weak (More than 75)”.

Take `CCOC(=O)C(N)Cc1cc(Cl)sc1Cl` (stereo not drawn) [Code 569]: the “Minimal Effective Concentration (MEC)” value in assay [1] was “Strong (0.1 mM)”. Besides, the “post-emergency herbicidal activity (Activity Index: plant's development vs Control)” value in assay [2] is given as “Maximal (Less than 15)”.

In the case of `CN(C)c1cc(CC(N)C(=O)O)ccn1` (stereo not drawn) [Code 631], the “Minimal Effective Concentration (MEC)” value in assay [1] was “Weak (More than 1 mM)”. In addition, in assay [2], the “post-emergency herbicidal activity (Activity Index: plant's development vs Control)” value was “Weak (More than 75)”.

With `CCCOC(=O)C(N)Cc1c(F)cnc(Br)c1F` (stereo not drawn) [Code 656], in assay [1], the “Minimal Effective Concentration (MEC)” value is “Strong (0.1 mM)”. Further, in assay [2], the “post-emergency herbicidal activity (Activity Index: plant's development vs Control)” value was “Very Strong (From 15 to 25)”.

As to `CCCCOC(=O)C(Cc1nsc(Cl)n1)NC(C)=O` (stereo not drawn) [Code 595], the “Minimal Effective Concentration (MEC)” value in assay [1] was “Strong (0.1 mM)”. The “post-emergency herbicidal activity (Activity Index: plant's development vs Control)” value in assay [2] is reported as “Strong (From 25 to 50)”.

Consider `C[n+]1cccc(CC(N)C(=O)O)c1` (stereo not drawn) [Code 667], for which the “Minimal Effective Concentration (MEC)” value in assay [1] was “Weak (More than 1 mM)”. Moreover, in assay [2], the “post-emergency herbicidal activity (Activity Index: plant's development vs Control)” value was “Weak (More than 75)”.

As for `CCOC(=O)C(Cc1ccsc1)NC(C)=O` (stereo not drawn) [Code 571], the “Minimal Effective Concentration (MEC)” value in assay [1] was “Strong (0.1 mM)”. In addition, the “post-emergency herbicidal activity (Activity Index: plant's development vs Control)” value in assay [2] is “Very Strong (From 15 to 25)”.

`CCOC(=O)C(N)Cc1ccsc1` (stereo not drawn) [Code 547]: in assay [1], the “Minimal Effective Concentration (MEC)” value is “Maximal (0.01 mM and less)”. The “post-emergency herbicidal activity (Activity Index: plant's development vs Control)” value in assay [2] was “Very Strong (From 15 to 25)”.

`CC1=CC(CC(N)C(=O)O)=C(C)S1(=O)=O` (stereo not drawn) [Code 564]: the “Minimal Effective Concentration (MEC)” value in assay [1] is “Weak (More than 1 mM)”. The “post-emergency herbicidal activity (Activity Index: plant's development vs Control)” value in assay [2] is “Weak (More than 75)”.

For the compound `COC(=O)C(N)CNS(=O)(=O)c1cc(Cl)sc1Cl` (stereo not drawn) [Code 523], the “Minimal Effective Concentration (MEC)” value in assay [1] was “Weak (More than 1 mM)”. Further, the “post-emergency herbicidal activity (Activity Index: plant's development vs Control)” value in assay [2] is recorded as “Weak (More than 75)”.

Turning to `NC(CNS(=O)(=O)c1cc(Br)sc1Br)C(=O)O` (stereo not drawn) [Code 558], the “Minimal Effective Concentration (MEC)” value in assay [1] is “Maximal (0.01 mM and less)”. In addition, in assay [2], the “post-emergency herbicidal activity (Activity Index: plant's development vs Control)” value is given as “Very Strong (From 15 to 25)”.

As for `Cc1sc(C)c(CC(N)C(=O)O)c1C` (stereo not drawn) [Code 512], the “Minimal Effective Concentration (MEC)” value in assay [1] was “Weak (More than 1 mM)”. Also, the “post-emergency herbicidal activity (Activity Index: plant's development vs Control)” value in assay [2] is recorded as “Weak (More than 75)”.

With `CCCOC(=O)C(N)CNS(=O)(=O)c1ccnc(Br)c1` (stereo not drawn) [Code 658], the “Minimal Effective Concentration (MEC)” value in assay [1] is listed as “Weak (More than 1 mM)”. For the same compound, the “post-emergency herbicidal activity (Activity Index: plant's development vs Control)” value in assay [2] is given as “Weak (More than 75)”.

Consider `NC(CNS(=O)(=O)c1c(Cl)sc(Cl)c1C(F)(F)F)C(=O)O` (stereo not drawn) [Code 521], for which the “Minimal Effective Concentration (MEC)” value in assay [1] is “Weak (More than 1 mM)”. In assay [2], the “post-emergency herbicidal activity (Activity Index: plant's development vs Control)” value is “Weak (More than 75)”.

As for `NC(Cc1cnccn1)C(=O)O` (stereo not drawn) [Code 621], in assay [1], the “Minimal Effective Concentration (MEC)” value was “Weak (More than 1 mM)”. Further, in assay [2], the “post-emergency herbicidal activity (Activity Index: plant's development vs Control)” value is given as “Weak (More than 75)”.

In the case of `NC(Cc1ccncn1)C(=O)O` (stereo not drawn) [Code 625], in assay [1], the “Minimal Effective Concentration (MEC)” value is “Moderate (1 mM)”. In addition, in assay [2], the “post-emergency herbicidal activity (Activity Index: plant's development vs Control)” value is “Weak (More than 75)”.

On to `NC(Cc1nnc[nH]1)C(=O)O` (stereo not drawn) [Code 709], for which the “Minimal Effective Concentration (MEC)” value in assay [1] is “Moderate (1 mM)”. For the same compound, in assay [2], the “post-emergency herbicidal activity (Activity Index: plant's development vs Control)” value is given as “Maximal (Less than 15)”.

`CCOC(=O)C(Cc1nc[nH]n1)NC(=O)OCc1ccccc1` (stereo not drawn) [Code 714]: the “Minimal Effective Concentration (MEC)” value in assay [1] is “Moderate (1 mM)”. Besides, the “post-emergency herbicidal activity (Activity Index: plant's development vs Control)” value in assay [2] is “Weak (More than 75)”.

Consider `CCOC(=O)C(N)Cc1ccnc(Br)c1Br` (stereo not drawn) [Code 662], for which the “Minimal Effective Concentration (MEC)” value in assay [1] is given as “Strong (0.1 mM)”. Also, in assay [2], the “post-emergency herbicidal activity (Activity Index: plant's development vs Control)” value is reported as “Moderate (From 50 to 75)”.

Turning to `NC(Cc1cc(Cl)nc(Cl)c1)C(=O)O` (stereo not drawn) [Code 628], the “Minimal Effective Concentration (MEC)” value in assay [1] was “Moderate (1 mM)”. Also, in assay [2], the “post-emergency herbicidal activity (Activity Index: plant's development vs Control)” value is “Very Strong (From 15 to 25)”.

On to `NC(Cc1cnc(O)c([N+](=O)[O-])c1)C(=O)O` (stereo not drawn) [Code 665], for which the “Minimal Effective Concentration (MEC)” value in assay [1] was “Moderate (1 mM)”. Further, in assay [2], the “post-emergency herbicidal activity (Activity Index: plant's development vs Control)” value is reported as “Weak (More than 75)”.

As to `NC(Cc1cc[nH]c1)C(=O)O` (stereo not drawn) [Code 704], the “Minimal Effective Concentration (MEC)” value in assay [1] is on record as “Weak (More than 1 mM)”. Also, the “post-emergency herbicidal activity (Activity Index: plant's development vs Control)” value in assay [2] is given as “Weak (More than 75)”.

Regarding `NC(Cc1ccncc1)C(=O)O` (stereo not drawn) [Code 602], in assay [1], the “Minimal Effective Concentration (MEC)” value was “Strong (0.1 mM)”. In assay [2], the “post-emergency herbicidal activity (Activity Index: plant's development vs Control)” value is reported as “Moderate (From 50 to 75)”.

`NC(CC(=O)O)c1cscc1Br` (stereo not drawn) [Code 511]: in assay [1], the “Minimal Effective Concentration (MEC)” value is listed as “Weak (More than 1 mM)”. Besides, in assay [2], the “post-emergency herbicidal activity (Activity Index: plant's development vs Control)” value is “Weak (More than 75)”.

Take `NC(Cc1ccsc1)C(=O)O` (stereo not drawn) [Code 502]: in assay [1], the “Minimal Effective Concentration (MEC)” value is “Maximal (0.01 mM and less)”. Moreover, the “post-emergency herbicidal activity (Activity Index: plant's development vs Control)” value in assay [2] is given as “Very Strong (From 15 to 25)”.

Turning to `NC(Cc1cncc(S)c1)C(=O)O` (stereo not drawn) [Code 612], the “Minimal Effective Concentration (MEC)” value in assay [1] is “Weak (More than 1 mM)”. Further, the “post-emergency herbicidal activity (Activity Index: plant's development vs Control)” value in assay [2] is on record as “Weak (More than 75)”.

With `Nc1cccc(CC(N)C(=O)O)n1` (stereo not drawn) [Code 609], the “Minimal Effective Concentration (MEC)” value in assay [1] is recorded as “Weak (More than 1 mM)”. Moreover, in assay [2], the “post-emergency herbicidal activity (Activity Index: plant's development vs Control)” value is on record as “Weak (More than 75)”.

Take `Nc1ncc(CC(N)C(=O)O)c(=O)[nH]1` (stereo not drawn) [Code 664]: the “Minimal Effective Concentration (MEC)” value in assay [1] is “Moderate (1 mM)”. Besides, in assay [2], the “post-emergency herbicidal activity (Activity Index: plant's development vs Control)” value is listed as “Weak (More than 75)”.

On to `CCCCOC(=O)C(N)Cc1ccsc1` (stereo not drawn) [Code 513], for which the “Minimal Effective Concentration (MEC)” value in assay [1] is “Strong (0.1 mM)”. Besides, the “post-emergency herbicidal activity (Activity Index: plant's development vs Control)” value in assay [2] was “Very Strong (From 15 to 25)”.

For the compound `Cl.Cl.NC(Cc1cccnc1)C(=O)O` (stereo not drawn) [Code 603], the “Minimal Effective Concentration (MEC)” value in assay [1] is reported as “Strong (0.1 mM)”. For the same compound, the “post-emergency herbicidal activity (Activity Index: plant's development vs Control)” value in assay [2] is reported as “Strong (From 25 to 50)”.

Consider `NC(Cc1cc(=O)[nH]c(S)n1)C(=O)O` (stereo not drawn) [Code 653], for which the “Minimal Effective Concentration (MEC)” value in assay [1] is on record as “Weak (More than 1 mM)”. Further, the “post-emergency herbicidal activity (Activity Index: plant's development vs Control)” value in assay [2] is reported as “Weak (More than 75)”.
